Reference: article PMC9780857 (International Journal of Molecular Sciences, 2022)
Several values for one entry are separate records, joined by “and”; a condition that tells them apart may be missing. Equal values may be shown once. Read-outs that look alike come from different tables or passages of the source.

How the values were obtained:
hOCT2 [1] = target: T1, hOCT2 (Homo sapiens, UniProt O15244); parameters: expressed in transfected cells; host or cells: HEK293 (stably transfected); details: cited from earlier work
T1 sequence (O15244 1-555): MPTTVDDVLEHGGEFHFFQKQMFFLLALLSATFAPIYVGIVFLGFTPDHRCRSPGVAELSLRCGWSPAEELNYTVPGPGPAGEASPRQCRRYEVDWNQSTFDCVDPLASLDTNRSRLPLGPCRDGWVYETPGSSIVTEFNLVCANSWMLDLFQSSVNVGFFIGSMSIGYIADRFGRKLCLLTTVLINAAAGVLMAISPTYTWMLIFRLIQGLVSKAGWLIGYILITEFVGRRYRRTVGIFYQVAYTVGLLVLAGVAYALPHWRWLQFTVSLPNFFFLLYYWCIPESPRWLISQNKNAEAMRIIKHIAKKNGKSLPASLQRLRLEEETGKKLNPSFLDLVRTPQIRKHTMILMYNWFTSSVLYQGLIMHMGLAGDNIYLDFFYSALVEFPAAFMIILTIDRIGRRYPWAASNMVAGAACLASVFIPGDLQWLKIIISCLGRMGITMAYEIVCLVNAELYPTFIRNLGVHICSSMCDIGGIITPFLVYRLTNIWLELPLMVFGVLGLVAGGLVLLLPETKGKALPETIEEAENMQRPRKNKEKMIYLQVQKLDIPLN

mOct2 [2] = target: T2, mOct2 (Mus musculus, UniProt O70577); assay: Inhibition of mOct2-mediated 14C-metformin uptake in transfected HEK293 cells; format: cell-based; parameters: expressed in transfected cells; host or cells: HEK293 (stably transfected); details: for Inhibitory Effects (%) mOct2 10 µM Mean: 10 µM test compound; for inhibition at 10 µM: read-out: Inhibitory Effects (%) mOct2 10 µM Mean; for inhibition at 100 µM: read-out: Inhibitory Effects (%) mOct2 100 µM Mean
T2 sequence (O70577 1-553): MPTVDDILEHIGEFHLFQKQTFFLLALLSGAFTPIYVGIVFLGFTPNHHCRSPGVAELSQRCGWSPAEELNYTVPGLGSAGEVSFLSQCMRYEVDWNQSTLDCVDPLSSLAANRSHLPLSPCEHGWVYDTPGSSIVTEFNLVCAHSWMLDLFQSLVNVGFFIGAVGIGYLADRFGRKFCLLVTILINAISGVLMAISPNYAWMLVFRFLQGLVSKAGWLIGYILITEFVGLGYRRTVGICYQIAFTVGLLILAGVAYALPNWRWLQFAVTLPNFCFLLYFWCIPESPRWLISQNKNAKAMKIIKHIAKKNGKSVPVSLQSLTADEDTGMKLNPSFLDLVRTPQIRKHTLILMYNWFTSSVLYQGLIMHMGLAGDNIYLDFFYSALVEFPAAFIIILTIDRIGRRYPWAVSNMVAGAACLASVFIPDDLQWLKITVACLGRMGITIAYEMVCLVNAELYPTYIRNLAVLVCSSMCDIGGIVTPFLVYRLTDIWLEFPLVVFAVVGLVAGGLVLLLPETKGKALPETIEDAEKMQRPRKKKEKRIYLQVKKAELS
Procedure: (§1) The uptake assays were performed as previously described in 24-well plates. […] After incubation, the uptake was stopped by aspirating the reaction mixture and washing the cells three times with 0.4 mL ice-cold PBS buffer. Cells were then solubilized with 0.6 mL of 1 N NaOH, overnight. The whole content of each well (0.6 mL) was transferred to a scintillation vial (Perkin Elmer). The radio-labelled amount was determined by liquid scintillation counting.
(§2) All inhibition experiments were conducted on at least two separate days in triplicate.
(§3) For screening experiments, cis-inhibition was carried out in duplicate by measuring the uptake of the labeled probe substrate in the absence and presence of 10 µM or 100 µM of the respective pesticide or drug. […] Inhibitory effects in percent were calculated from net-uptake. […]

hOCT2 [3] = target: T1, hOCT2; assay: Inhibition of hOCT2-mediated 14C-metformin uptake in transfected HEK293 cells; format: cell-based; parameters: expressed in transfected cells; host or cells: HEK293 (stably transfected); details: for Inhibitory Effects (%) hOCT2 10 µM Mean: 10 µM test compound; for inhibition at 10 µM: read-out: Inhibitory Effects (%) hOCT2 10 µM Mean; for inhibition at 100 µM: read-out: Inhibitory Effects (%) hOCT2 100 µM Mean
Procedure: as §1, §2, §3

hOCT2 [4] = target: T1, hOCT2; details: read-out: IC50, hOCT2-mediated metformin uptake; cited from earlier work
OCT2 = tested on: OCT2; parameters: method as in PMID 19833842; details: OCT2-overexpressing HEK293 cells; read-out: IC50, YM155 uptake; cited from earlier work
hOCT2 [5] = target: T1, hOCT2; parameters: expressed in transfected cells; host or cells: HEK293 (stably transfected); method as in ref 39 (Vermeer et al.); details: ref 39 (Vermeer et al.); cited from earlier work
hOCT2 [6] = target: T1, hOCT2; parameters: method as in PMID 9260930; details: OCT2-overexpressing oocytes (procainamid); read-out: IC50, hOCT2-mediated TEA uptake; cited from earlier work
hOCT2 [7] = target: T1, hOCT2; assay: Inhibition of hOCT2-mediated 3H-MPP uptake in transfected HEK293 cells; format: cell-based; parameters: expressed in transfected cells; host or cells: HEK293 (stably transfected)
Procedure: (§4) With cDNA of hOCT2 (GeneBank: accession number: NM_003058.3) or mOct2 (NM_013667.2), stably overexpressing HEK293 cells were used for the experiments and empty vector-transfected HEK cells were used as control-HEK cells.
(§5) The uptake assays were performed as previously described in 24-well plates. Therefore, culture medium was aspirated, and each well was rinsed three times with 0.5 mL incubation buffer (HBSS supplemented with 20 mM HEPES, pH 7.4) and then incubated in 200 µL dosing solution containing ^3H-MPP or ^14C-metformin and the test compound. After incubation, the uptake was stopped by aspirating the reaction mixture and washing the cells three times with 0.4 mL ice-cold PBS buffer. Cells were then solubilized with 0.6 mL of 1 N NaOH, overnight. The whole content of each well (0.6 mL) was transferred to a scintillation vial (Perkin Elmer). The radio-labelled amount was determined by liquid scintillation counting.
(§6) […]. All inhibition experiments were conducted on at least two separate days in triplicate.
(§7) The Km and Vmax values were obtained using SigmaPlot version 13 by fitting the Michaelis–Menten equation V = Vmax*[S]/(Km + [S]), where V refers to the rate of substrate transport, Vmax refers to the maximum rate of substrate transport, [S] refers to the concentration of substrate, and Km is defined as the concentration of substrate at the half-maximal transport rate.

mOct2 [8] = target: T2, mOct2; assay: Inhibition of mOct2-mediated 3H-MPP uptake in transfected HEK293 cells; format: cell-based; parameters: expressed in transfected cells; host or cells: HEK293 (stably transfected); details: read-out: IC50, mOct2-mediated MPP uptake; control inhibitor; MPP at its Km; 0.1-100 µM inhibitor
Procedure: as §4, §5, §6, §7

MATEs = tested on: MATEs; parameters: method as in ref 33 (Wittwer et al.); details: ref 33 (Wittwer et al.); read-out: IC50, MATEs-mediated ASP+ uptake; cited from earlier work
[9] = 1 µM [14C]metformin, 2 min, HEK293, negative = stimulation
[10] = HEK293, 10 µM test compound, 1 µM [14C]metformin, 2 min, HEK293, negative = stimulation
[11] = HEK293, 100 µM test compound, 1 µM [14C]metformin, 2 min, HEK293, negative = stimulation
[12] = 100 µM test compound, 1 µM [14C]metformin, 2 min, HEK293, negative = stimulation

| Inhibitory Effects (%) mOct2 10 µM Mean (mOct2 [2]; [9]) [%] | inhibition at 10 µM (mOct2 [2]; [10]) [%] | inhibition at 100 µM (mOct2 [2]; [11]) [%] | Inhibitory Effects (%) hOCT2 10 µM Mean (hOCT2 [3]; [9]) [%] | inhibition at 10 µM (hOCT2 [3]; [10]) [%] | inhibition at 100 µM (hOCT2 [3]; [11]) [%] | SMILES | inhibition at 10 µM (mOct2 [2]; HEK293) [%] | inhibition at 100 µM (mOct2 [2]; HEK293) [%] | also measured |
| --- | --- | --- | --- | --- | --- | --- | --- | --- | --- |
| 54 | 46 | 89 | 40 | 60 | 76 | Clc1cccc(Cl)c1N=C1NCCN1 [Clonidine] |  |  | IC50 (hOCT2 [1]; read-out: IC50, hOCT2-mediated MPP uptake): 6 µM; IC50 (hOCT2 [4]): 0.68 µM |
|  | -16 | -30 |  |  |  | CCN(CC)CCNC(=O)c1ccc(N)cc1 [Procainamid] |  |  | IC50 (OCT2): 92 µM; inhibition at 10 µM (hOCT2 [3]; HEK293): -20%; inhibition at 100 µM (hOCT2 [3]; HEK293): -44% |
| 72 |  |  | 67 |  |  | CCN1/C(=C/c2ccc3ccccc3[n+]2CC)C=Cc2ccccc21.[I-] [Decynium22] |  |  | IC50 (hOCT2 [1]; read-out: IC50, MPP uptake in hOCT2-HEK293 cells, HEK293, ref 28 (Hayer-Zillgen et al. 2002)): 1.3 µM; Fold higher inhibitory potential on metformin uptake compared to MPP uptake, mOct2 (mOct2 [2]): 2.7 fold; Inhibitory Effects (%) mOct2 100 µM Mean (mOct2 [2]; [12]): 97%; IC50 (mOct2 [2]; read-out: IC50, mOct2-mediated metformin uptake, control inhibitor, 350 µM metformin, 0.1-100 µM inhibitor): 2.6 µM; Fold higher inhibitory potential on metformin uptake compared to MPP uptake, hOCT2 (hOCT2 [3]): 7.2 fold; Inhibitory Effects (%) hOCT2 100 µM Mean (hOCT2 [3]; [12]): 96%; IC50 (hOCT2 [3]; read-out: IC50, hOCT2-mediated metformin uptake, control inhibitor, 350 µM metformin, 0.1-100 µM inhibitor): 2.2 µM; IC50 (hOCT2 [6]): 0.1 µM; Fold higher IC50 for hOCT2 than for mOct2 (hOCT2 [7]; MPP as substrate): 2 fold and 2.3 fold; IC50 (hOCT2 [7]; read-out: IC50, hOCT2-mediated MPP uptake, control inhibitor, MPP at its Km, 0.1-100 µM inhibitor): 16 µM; IC50 (mOct2 [8]): 6.9 µM |
|  |  |  |  | -10 | -38 | CC(C)c1nc(CN(C)C(=O)N[C@H](C(=O)N[C@@H](Cc2ccccc2)C[C@H](O)[C@H](Cc2ccccc2)NC(=O)OCc2cncs2)C(C)C)cs1 [Ritonavir] | 1 | -8 | IC50 (MATEs): 4.4 µM |

| SMILES | Inhibitory Effects (%) mOct2 10 µM Mean (mOct2 [2]; [9]) [%] | inhibition at 10 µM (mOct2 [2]; [10]) [%] | inhibition at 100 µM (mOct2 [2]; [11]) [%] | Inhibitory Effects (%) hOCT2 10 µM Mean (hOCT2 [3]; [9]) [%] | inhibition at 10 µM (hOCT2 [3]; [10]) [%] | inhibition at 100 µM (hOCT2 [3]; [11]) [%] | inhibition at 10 µM (mOct2 [2]; HEK293) [%] | inhibition at 100 µM (mOct2 [2]; HEK293) [%] | also measured |
| --- | --- | --- | --- | --- | --- | --- | --- | --- | --- |
| CC(=O)N1CCN(c2ccc(OCC3COC(Cn4ccnc4)(c4ccc(Cl)cc4Cl)O3)cc2)CC1 (stereo not drawn) [Ketoconazole] |  |  |  |  | 31 | 87 | 49 | 87 | IC50 (hOCT2 [5]): 0.89 µM |
